Data from patent US20230000840A1, “THERAPEUTIC AGENTS AND PROPHYLACTIC AGENTS FOR FUNCTIONAL GASTROINTESTINAL DISORDERS AND XEROSTOMIA” (NIPPON SHINYAKU CO., LTD., priority 2019, published 2023).

Columns and labels:
[1] = tested on: ileum; assay: Magnus test: carbachol-induced contraction of isolated rat ileum; details: test compound 10 μM, then carbachol 50 nM, 100% = carbachol 1000 nM, 0% = DMSO + carbachol 50 nM, average ± standard error, read-out: Enhancement ratio P of the contraction force
Description: 9- to 15-week-aged SD female rats (Japan SLC, Inc.) were exsanguinated to death by amputation of carotid artery under isoflurane anesthesia. Then, the ileum was removed from each rat, and cut to a length of 2 cm while excising the mesentery and connective tissue, to prepare an intestinal sample. In a Magnus tank, this sample was immersed and suspended in 20 mL of a Krebs solution at 37° C. (118 mM NaCl, 4.7 mM KCl, 2.5 mM CaCl2, 1.2 mM MgSO4, 1.2 mM KH2PO4, 11 mM D-glucose, 20 mM NaHCO3) aerated with a mixed gas of 95% O2 and 5% CO2. Then, a load of 1 g was applied to the sample to stabilize the tension.
One end of the sample was connected to an isotonic transducer (IT-10, Medical Agent), and tension (contraction force) data was imported to a personal computer via Power Lab (registered trademark) (A&D Instruments Limited). Carbachol (Carbamylcholine Chloride, Cat. No. 036-09841, manufactured by FUJIFILM Wako Pure Chemical Industries, Ltd.) was added to the Krebs solution in the Magnus tank such that the final concentration thereof was 1000 nM, and contraction of the sample was checked. A contraction force Tb of the sample at this time was defined as 100%. Then, the Magnus tank was washed with a Krebs solution three times to wash away carbachol, and the Magnus tank was finally filled with 20 mL of a Krebs solution.
Next, dimethyl sulfoxide (DMSO, Cat. No. 13445-74, manufactured by NACALAI TESQUE, INC.) was added to the Krebs solution in the Magnus tank, then carbachol was added to the Krebs solution in the Magnus tank such that the final concentration thereof was 50 nM, and contraction of the sample was checked. A contraction force Ta of the sample at this time was defined as 0%. Then, the Magnus tank was washed with a Krebs solution three times to wash away carbachol and DMSO, and the Magnus tank was finally filled with 20 mL of a Krebs solution. Next, a test compound dissolved in DMSO was added to the Krebs solution in the Magnus tank such that the final concentration thereof was 10 μM, then carbachol was added to the Krebs solution in the Magnus tank such that the final concentration thereof was 50 nM, and contraction of the sample was checked.
As described above, the contraction force Tb of the sample when carbachol was added at a final concentration of 1000 nM was defined as 100%, and the contraction force Ta of the sample when carbachol was added at a final concentration of 50 nM under the condition that DMSO was added first instead of the test compound was defined as 0%. The contraction force of the sample when carbachol was added at a final concentration of 50 nM under the condition that the test compound was added first at a final concentration of 10 μM was denoted by Tc, and an enhancement ratio P (unit: %) of the contraction force by the test compound was calculated according to the following equation (2). The increase in contraction force by the test compound was evaluated on the basis of the enhancement ratio P. The number of cases in each addition group was 3 to 7.
P=100×(Tc−Ta)/(Tb−Ta) (2)

[2] = tested on: anesthetized mice; assay: Measurement of secreted saliva amount in anesthetized mice; assay type: in vivo, mouse; details: urethane-anesthetized male ICR mice; 10 mg/kg intravenous; cotton balls weighed after 30 minutes; average ± standard error
Description: 8-week-aged male ICR mice (Japan SLC, Inc.) were anesthetized with urethane (1650 mg/kg, intraperitoneal administration). After about 1 hour, a test compound or a vehicle (physiological saline containing 10% DMSO (OTSUKA NORMAL SALINE, manufactured by Otsuka Pharmaceutical Factory, Inc.)) was intravenously administered at 10 mg/kg, and immediately after that, one or two absorbent cotton wool balls ([…]) (Roller Cotton (cotton ball) SS, manufactured by Nichiei Co., Ltd.) were inserted into the mouth. The difference between the weight of the absorbent cotton balls after 30 minutes from insertion and the weight of the absorbent cotton balls before insertion was defined as an amount of saliva secreted. At this time, the test compound was dissolved in DMSO and then diluted 10-fold with physiological saline. The administration volumes of the test compound and the vehicle were each set to 5 mL/kg. The experiment was carried out in three parts. The number of cases in each administration group was 3-4.

Q: For `CCOCC1(CN(C)c2cc(-c3cnc(C4CC4)c(C(F)(F)F)c3)nc3nc(-c4cnc(N5CCN(CCC(=O)[O-])C[C@H]5C)cn4)[nH]c23)CCCC1.[Na+]` [Example 13, sodium 3-[(3R)-4-(5-{5-[6-cyclopropyl-5-(trifluoromethyl)pyridin-3-yl]-7-[{[1-(ethoxymethyl)cyclopentyl]methyl}(methyl)amino]-1H-imidazo [4,5-b]pyridin-2-yl}pyrazin-2-yl)-3-methylpiperazin-1-yl]propanoate], which activation at 10 µM [1] is on record?
A: 17.7 ± 12.7%

Q: And the “Amount of saliva secreted” value [2]?
A: 214.40 ± 51.06 mg
